Experimental data published in article PMC12211128, “Safety, tolerability, pharmacokinetic and pharmacodynamic effects of the muscarinic M1 positive allosteric modulator VU0467319 for Alzheimer’s disease: a single ascending-dose study in healthy participants” (Alzheimer's Research & Therapy, 2025).

Tests used:
healthy participants [1] = experiment: Choice reaction time task (CRT); assay type: in vivo, human; conditions: for CRT Median Motor Time / CRT Median Recognition Time / CRT Median Total Time: mean (SD)
From the text: (§1) The choice reaction time (CRT; [31]) task was used to measure psychomotor speed. Outcome variables on the CRT were the median total reaction time, which can be broken down into the recognition time (time from stimulus onset to initiation of movement), and the motor reaction time (time from initiation of movement to stimulus termination).
(§2) Cognitive data: In this exploratory analysis, each outcome variable of the cognitive data was examined in a mixed model analysis of variance with one between-subjects factor of VU319 dose (0, 60, 120, 240, 400, 600 mg) and a within-subjects factor of testing session (pre-dose vs. post-dost administration). Post-hoc analysis compared each of the VU319 dose cohorts against the placebo group. Because the participants were healthy adults with normal cognitive function, we considered effects between no reductions in function to small improvement (d = 0.0–0.20) to be a positive result. For the food effect study, only the participants who received VU319 were examined due to the disproportionately small placebo group (n = 2). A within-subjects ANOVA including food condition (fasted/fed) and testing session (pre-dose vs. post-dose administration) was performed on each outcome variable.
as §1, with “(Hindmarch, 1984))” for “[31])”

healthy participants [2] = experiment: Spatial selective attention test (SSAT); assay type: in vivo, human; conditions: for SSAT Alerting Cost / SSAT Reorienting Cost: mean (SD)
From the text: A version of the spatial selective attention test (SSAT; [33]) was used to assess the ability of participants to disengage attention and shift to a new target. Participants were asked to press a button corresponding to the side of the screen on which a stimulus appeared. The outcome variables of the task are the reaction time effects related to the ability of participants to anticipate a target when there is an ambiguous cue compared to there being no cue at all (Alerting effect: no cue– neutral cue); and the ability of participants to shift their attention between congruent and incongruent stimuli (Reorienting effect: invalid cue– valid cue).
as §2
A version of the spatial selective attention test (SSAT; (Posner, 1980)) was used to assess the ability of participants to disengage attention and shift to a new target. Participants were asked to press a button corresponding to the side of the screen on which a stimulus appeared. A central diamond was placed in between serving as a fixation point. Cues consisted of a 200-ms darkening of one side of the diamond depicting an arrowhead pointing to one of the peripheral boxes. The cue was followed by a target appearing for 100-ms in one of the boxes. To prevent temporal orienting, we used two randomly occurring cue–target intervals (400 and 700-ms). The targets were black diamonds that appeared in either the left or right boxes. In most trials, the cue validly predicted the target, however some cues were invalid, that is they pointed in the opposite direction of the target. On some trials, both sides of the diamond darkened, resulting in an ambiguous or neutral cue in which the participants were not able to prepare a specific hand to respond. […] The task consisted of 112 trials, with 64 trials (57%) with valid cues, and 16 trials (14.3%) each for the invalid, neutral or no cues conditions. The outcome variables of the task are the reaction time effects related to the ability of participants to anticipate a target when there is an ambiguous cue compared to there being no cue at all (Alerting effect: no cue – neutral cue); and the ability of participants to shift their attention between congruent and incongruent stimuli (Reorienting effect: invalid cue – valid cue).

[3] = Food effect study 120 mg, Fasting, Post-Drug
[4] = Food effect study 120 mg, Fasting, Pre-Drug
[5] = Food effect study 120 mg, Fed, Post-Drug
[6] = Food effect study 120 mg, Fed, Pre-Drug

Cn1cc2c(-c3cc(F)c(CN4Cc5ncccc5C4=O)c(F)c3)cccc2n1 [VU319]
CRT Median Motor Time (healthy participants [1]; [3]): 299.2 (24.19) ms
CRT Median Recognition Time (healthy participants [1]; [3]): 370.55 (33.17) ms
CRT Median Total Time (healthy participants [1]; [3]): 679.55 (35.68) ms
CRT Median Motor Time (healthy participants [1]; [4]): 302 (40.02) ms
CRT Median Recognition Time (healthy participants [1]; [4]): 384.9 (53.58) ms
CRT Median Total Time (healthy participants [1]; [4]): 691.25 (64.17) ms
CRT Median Motor Time (healthy participants [1]; [5]): 297.25 (36.2) ms
CRT Median Recognition Time (healthy participants [1]; [5]): 369.4 (41.57) ms
CRT Median Total Time (healthy participants [1]; [5]): 673.65 (47.86) ms
CRT Median Motor Time (healthy participants [1]; [6]): 321.5 (36.67) ms
CRT Median Recognition Time (healthy participants [1]; [6]): 365.45 (41.27) ms
CRT Median Total Time (healthy participants [1]; [6]): 695.7 (47.32) ms
CRT Median Motor Time (healthy participants [1]; SAD study, 60 mg, Post-Drug): 330.42 (64.58) ms
CRT Median Recognition Time (healthy participants [1]; SAD study, 60 mg, Post-Drug): 394.92 (82.56) ms
CRT Median Total Time (healthy participants [1]; SAD study, 60 mg, Post-Drug): 734.25 (120.68) ms
CRT Median Motor Time (healthy participants [1]; SAD study, 60 mg, Pre-Drug): 331.08 (35.75) ms
CRT Median Recognition Time (healthy participants [1]; SAD study, 60 mg, Pre-Drug): 391.33 (59.93) ms
CRT Median Total Time (healthy participants [1]; SAD study, 60 mg, Pre-Drug): 735.08 (60.61) ms
CRT Median Motor Time (healthy participants [1]; SAD study, 120 mg, Post-Drug): 332.67 (89.6) ms
CRT Median Recognition Time (healthy participants [1]; SAD study, 120 mg, Post-Drug): 389 (43.6) ms
CRT Median Motor Time (healthy participants [1]; SAD study, 120 mg, Pre-Drug): 329.08 (80.22) ms
CRT Median Recognition Time (healthy participants [1]; SAD study, 120 mg, Pre-Drug): 384.92 (42.09) ms
CRT Median Total Time (healthy participants [1]; SAD study, 120 mg, Pre-Drug): 718.58 (103.36) ms
CRT Median Motor Time (healthy participants [1]; SAD study, 240 mg, Post-Drug): 353.25 (69.11) ms
CRT Median Recognition Time (healthy participants [1]; SAD study, 240 mg, Post-Drug): 399 (83.54) ms
CRT Median Total Time (healthy participants [1]; SAD study, 240 mg, Post-Drug): 759.42 (151.55) ms
CRT Median Motor Time (healthy participants [1]; SAD study, 240 mg, Pre-Drug): 374.58 (64.5) ms
CRT Median Recognition Time (healthy participants [1]; SAD study, 240 mg, Pre-Drug): 410.5 (68.61) ms
CRT Median Total Time (healthy participants [1]; SAD study, 240 mg, Pre-Drug): 800.92 (121.25) ms
CRT Median Motor Time (healthy participants [1]; SAD study, 400 mg, Post-Drug): 334.33 (33) ms
CRT Median Recognition Time (healthy participants [1]; SAD study, 400 mg, Post-Drug): 388.17 (40.47) ms
CRT Median Total Time (healthy participants [1]; SAD study, 400 mg, Post-Drug): 728.92 (57.1) ms
CRT Median Motor Time (healthy participants [1]; SAD study, 400 mg, Pre-Drug): 331 (38.55) ms
CRT Median Recognition Time (healthy participants [1]; SAD study, 400 mg, Pre-Drug): 396.67 (41.84) ms
CRT Median Total Time (healthy participants [1]; SAD study, 400 mg, Pre-Drug): 731 (55.14) ms
CRT Median Motor Time (healthy participants [1]; SAD study, 600 mg, Post-Drug): 282.33 (56.95) ms
CRT Median Recognition Time (healthy participants [1]; SAD study, 600 mg, Post-Drug): 362.67 (52.01) ms
CRT Median Total Time (healthy participants [1]; SAD study, 600 mg, Post-Drug): 649.58 (71.76) ms
CRT Median Motor Time (healthy participants [1]; SAD study, 600 mg, Pre-Drug): 291.42 (46.98) ms
CRT Median Recognition Time (healthy participants [1]; SAD study, 600 mg, Pre-Drug): 364.92 (18.0) ms
CRT Median Total Time (healthy participants [1]; SAD study, 600 mg, Pre-Drug): 662.17 (61.66) ms
CRT total, recognition and motor time, effect of dose (healthy participants [1]; SAD study, all p > 0.1): no effect of dose, session, nor a dose by session interaction
CRT recognition time, food condition by session interaction, effect size d (healthy participants [1]; food effect study, 120 mg, p = 0.027, quicker recognition post-dose in fasted condition): 1.76
SSAT Alerting Cost (healthy participants [2]; [3]): 25.8 (59.97) ms
SSAT Reorienting Cost (healthy participants [2]; [3]): 49.55 (35.68) ms
SSAT Alerting Cost (healthy participants [2]; [4]): 60.4 (53.4) ms
SSAT Reorienting Cost (healthy participants [2]; [4]): 52.15 (24.83) ms
SSAT Alerting Cost (healthy participants [2]; [5]): 113.15 (181.48) ms
SSAT Reorienting Cost (healthy participants [2]; [5]): 49.45 (32.65) ms
SSAT Alerting Cost (healthy participants [2]; [6]): 54.1 (45.3) ms
SSAT Reorienting Cost (healthy participants [2]; [6]): 56.75 (38.19) ms
SSAT Alerting Cost (healthy participants [2]; SAD study, 60 mg, Post-Drug): 59.58 (43) ms
SSAT Reorienting Cost (healthy participants [2]; SAD study, 60 mg, Post-Drug): 55.25 (34.49) ms
SSAT Alerting Cost (healthy participants [2]; SAD study, 60 mg, Pre-Drug): 53.67 (39.48) ms
SSAT Reorienting Cost (healthy participants [2]; SAD study, 60 mg, Pre-Drug): 43.58 (31.92) ms
SSAT Alerting Cost (healthy participants [2]; SAD study, 120 mg, Post-Drug): 44.25 (22.86) ms
SSAT Reorienting Cost (healthy participants [2]; SAD study, 120 mg, Post-Drug): 20.33 (32.95) ms
SSAT Alerting Cost (healthy participants [2]; SAD study, 120 mg, Pre-Drug): 62.75 (45) ms
SSAT Reorienting Cost (healthy participants [2]; SAD study, 120 mg, Pre-Drug): 10.17 (18.88) ms
SSAT Alerting Cost (healthy participants [2]; SAD study, 240 mg, Post-Drug): 58.83 (38.04) ms
SSAT Reorienting Cost (healthy participants [2]; SAD study, 240 mg, Post-Drug): 39.67 (33.04) ms
SSAT Alerting Cost (healthy participants [2]; SAD study, 240 mg, Pre-Drug): 34.83 (27.3) ms
SSAT Reorienting Cost (healthy participants [2]; SAD study, 240 mg, Pre-Drug): 27.92 (29.28) ms
SSAT Alerting Cost (healthy participants [2]; SAD study, 400 mg, Post-Drug): 44.92 (26.61) ms
SSAT Reorienting Cost (healthy participants [2]; SAD study, 400 mg, Post-Drug): 31.25 (18.61) ms
SSAT Alerting Cost (healthy participants [2]; SAD study, 400 mg, Pre-Drug): 59.75 (24.51) ms
SSAT Reorienting Cost (healthy participants [2]; SAD study, 400 mg, Pre-Drug): 22.17 (25) ms
SSAT Alerting Cost (healthy participants [2]; SAD study, 600 mg, Post-Drug): 19.5 (41.26) ms
SSAT Reorienting Cost (healthy participants [2]; SAD study, 600 mg, Post-Drug): 31.33 (15.75) ms
SSAT Alerting Cost (healthy participants [2]; SAD study, 600 mg, Pre-Drug): 26.08 (37.44) ms
SSAT Reorienting Cost (healthy participants [2]; SAD study, 600 mg, Pre-Drug): 20.92 (11.57) ms
SSAT reorienting effect, effect of dose (healthy participants [2]; SAD study, both p > 0.3): no effect of dose, nor a dose by time interaction
SSAT, effect of food condition or time (healthy participants [2]; food effect study, 120 mg): no effect of either food condition or time
